The target in the data set is HSD17B13. To be noted: ASO, HepaRG.

After the bases stand the sugars from the 5' end (letter, count) and the backbone: PS all phosphorothioate, else s phosphorothioate and o phosphodiester by linkage. Methylation of C is not given here. e = 2'-O-(2-methoxyethyl) (MOE); k = constrained ethyl (cEt); d = 2'-deoxy (DNA); m = 2'-O-methyl

For the setting “1 µM”, “TTAAAATAGAGTCGGT (sugars k3 d9 k3 e1, PS)” came in with a target mRNA inhibition of 71%.

Turning to TTAAGAGAAGGTGCAC (sugars k3 d10 k3, PS), the target mRNA inhibition (1 µM) is 38%.

TTAAGATGTCCAGGCA (sugars k3 d10 k3, PS): the target mRNA inhibition (1 µM) is 35%.

Turning to “TTAATGCCACCCTACC (sugars k3 d9 k3 e1, PS)”, the target mRNA inhibition (1 µM) stood at 20%.

“TTACAGCATCAAGACA (sugars kkdddddddddkekek, PS)” gave a target mRNA inhibition (1 µM) of 22%.

With TTACCAGAGCATTCAT (sugars k3 d10 k3, PS), the target mRNA inhibition (1 µM) was found to be 50%.

For TTACCCCTGGCTTTTC (sugars k3 d10 k3, PS), the target mRNA inhibition (1 µM) is 26%.

TTAGAAGTCAGCCCAA (sugars k3 d10 k3, PS): the target mRNA inhibition (1 µM) turned out to be 37%.

Consider TTAGAATAGTCTTCAG (sugars k3 d10 k3, PS), for which the target mRNA inhibition (1 µM) was determined as 52%.

In turn, TTAGAGTGAATCATTC (sugars k3 d10 k3, PS) came in with a target mRNA inhibition (1 µM) of 69%.

In turn, TTAGATTGCATAAGAG (sugars k3 d10 k3, PS) displayed a target mRNA inhibition (1 µM) of 61%.

Regarding TTAGCTTAAACTCCAA (sugars k3 d10 k3, PS), the target mRNA inhibition was 0% (0.02 µM); 18% (0.078 µM); 38% (0.313 µM); 78% (1 µM); 75% (1.25 µM); 82% (5 µM).

Turning to TTAGGATTAATTCCCT (sugars k3 d10 k3, PS), the target mRNA inhibition (1 µM) amounted to 14%.

The sequence TTAGTCTTGATGTAGT (sugars k3 d10 k3, PS) yielded a target mRNA inhibition (1 µM) of 61%.

The sequence “TTAGTTAGAATAGTCT (sugars k3 d9 k3 e1, PS)” gave a target mRNA inhibition (1 µM) of 67%.

For the sequence “TTATAACTACAAGAGG (sugars k3 d9 k3 e1, PS)”, the target mRNA inhibition (1 µM) stood at 43%.

Take TTATAGACTGGGTAGG (sugars k3 d10 k3, PS): the target mRNA inhibition (1 µM) was 51%.

Take “TTATGTAATAGCCAGT (sugars k3 d9 k3 e1, PS)”: the target mRNA inhibition came out at 0% (0.02 µM); 13% (0.078 µM); 14% (0.313 µM); 77% (1 µM); 74% (1.25 µM); 92% (5 µM).

For the setting “1 µM”, TTATGTGATTGAGTTC (sugars k3 d10 k3, PS) showed a target mRNA inhibition of 34%.

Regarding TTATTAGAAGTCAGCC (sugars k3 d10 k3, PS), the target mRNA inhibition (1 µM) was 36%.

For the sequence TTATTATGAGGATCTG (sugars k3 d10 k3, PS), the target mRNA inhibition (1 µM) turned out to be 50%.

TTATTCACCACGATTG (sugars k3 d10 k3, PS) showed a target mRNA inhibition (1 µM) of 40%.

With TTATTGCCTGAACACA (sugars k3 d10 k3, PS), the target mRNA inhibition (1 µM) came out at 58%.

TTCACAAAAACTGGGC (sugars k3 d10 k3, PS) returned a target mRNA inhibition (1 µM) of 37%.

Consider TTCAGTCCTTGTGTAG (sugars k3 d10 k3, PS), for which the target mRNA inhibition (1 µM) was 45%.

Regarding “TTCCATCTATCAGACT (sugars k3 d1 m1 d8 k3, PS)”, the target mRNA inhibition (1 µM) came to 38%.

For the sequence “TTCCATCTATCAGACT (sugars k3 d9 k3 e1, PS)”, the target mRNA inhibition (1 µM) is 43%.

“TTCTGTGGCATGGCTA (sugars kkdddddddddkekek, PS)” showed a target mRNA inhibition (1 µM) of 50%.

For TTCTTACGACTTCATC (sugars k3 d10 k3, PS), the target mRNA inhibition (1 µM) was 47%.

TTCTTATGTAATAGCC (sugars k3 d10 k3, PS) returned a target mRNA inhibition (0.02 µM) of 16%; a target mRNA inhibition (0.078 µM) of 39%; a target mRNA inhibition (0.313 µM) of 66%; a target mRNA inhibition (1 µM) of 71%; a target mRNA inhibition (1.25 µM) of 86%; a target mRNA inhibition (5 µM) of 96%.
